The values that follow come from patent US20120088668A1, “THINNING AGENT” (TAMINCO, NAAMLOZE VENNOOTSCHAP, priority 2009, published 2012).

The subject of test [1] is Chrysanthemum cv Herby Mixed. The experiment in a line: Flower bud thinning, Chrysanthemum cv Herby Mixed: auxin/auxin precursor with or without acetaminophen. In kind it is in vivo. The settings on record: for Mean Number of Buds/plant: auxins/precursors each at 10^−2 Molar solutions, AC at 3 g per hectare equivalent, applied 2 Dec. 2009 (first bud), measured 12 Jan. 2010 (flowering); for % Improvement over control ie (C) minus (A) or (B)/(C × 100): reduction of buds/plant against Control (C). As to the method:
Cultural Details: plants were sown in a commercial seed compost and then “pricked out” into a professional grade all-purpose compost in 9 cm pots set out in a randomized block design. Normal daylight plus supplementary lighting to provide a minimum of 10 hours per day. Heating was given to a minimum of 60 degrees Fahrenheit during the day and 40 degrees F. at night.
Sowing Date: 5 Oct. […] Application Date: 2 Dec. […] Measurement Date: 12 Jan. […] Measurement: Number of buds per plant.
A number of auxins or auxin precursors were applied, each at 10^−2 Molar solutions. Addition of acetaminophen (AC) was at 3 g per hectare equivalent in each test.

Test [2] relates to Chrysanthemum cv Herby Mixed. The experiment in a line: Flower bud thinning, Chrysanthemum cv Herby Mixed: agrochemically acceptable additives with AN or AN + AC. Particulars: for Mean Number of Buds/plant: AN 1 g, AC 3 g actives per hectare in 250 litres water, additive per ha: Glucose 150 g, Succinic acid 50 g, Ascorbic acid 50 g, Corn oil 500 g, L-arginine 30 g, applied 4 Feb. 2010 (first bud), measured 12 Mar. 2010. Format: in vivo. As to the method: Cultural Details: plants were sown in a commercial seed compost and then “pricked out” into a professional grade all-purpose compost in 9 cm pots set out in a randomized block design. Normal daylight plus supplementary lighting to provide a minimum of 10 hours per day. Heating was given to a minimum of 60 degrees Fahrenheit during the day and 40 degrees at night. Certain agrochemically acceptable additives, as examples (rates per ha provided in the Table below), were added to either anthranilic acid ([…], applied in 250 litres water per hectare, […]) or anthranilic acid plus acetaminophen (1 gram per litre and 3 gram per litre solution respectively, applied in 250 litres water per hectare, =1 g and 3 g actives total respectively per hectare).
Sowing Date: 26 Oct. 2009, in plugs. Application Date: 4 Feb. 2010 (first bud). Measurement Date: 12 Mar. 2010 (flowering). Measurement: Number of buds per plant.

For `CC(N)=O` [Acetamide], in test [1], the “Mean Number of Buds/plant” value was found to be 2.3 and the “% Improvement over control ie (C) minus (A) or (B)/(C × 100)” value (“% Improvement over control ie (C) minus” below) is “+14.8%”.
For `Nc1ccccc1C(=O)[O-].[Na+]` [Anthranilic Acid monosodium salt], in that order: 2.3 and “+14.8%”.
For the molecule `Nc1c(O)cccc1C(=O)O` [3-Hydroxyanthranilic acid], in test [1], the “Mean Number of Buds/plant” value is recorded as 2.5 and the “% Improvement over control ie (C) minus” value is given as “+7.4%”.
For `NC(=O)Cc1c[nH]c2ccccc12` [Indole-3-acetamide], in that order: 2.3 and “+14.8%”.
For `COC(=O)c1ccccc1N` [Anthranilic acid methyl ester], in that order: 2.2 and “+18.5%”.
Turning to `NCCc1c[nH]c2ccccc12` [Tryptamine], in test [1], the “Mean Number of Buds/plant” value came out at 2.7 and the “% Improvement over control ie (C) minus” value was “+0.0%”.
Consider `CC(=O)Nc1ccc(O)cc1` [AC, N-(4-hydroxypheyl)acetamide, reference compound], for which the results for the “Mean Number of Buds/plant” value in test [1] and in test [2] were 2.7 and 2.8, respectively.
With `Nc1ccccc1C(=O)O` [Anthranilic acid, anthranilic acid], in test [1], the “Mean Number of Buds/plant” value was found to be 2.2 and the “% Improvement over control ie (C) minus” value was “+18.5%”. Besides, in test [2], the “Mean Number of Buds/plant” value turned out to be 2.3. The “% Improvement over untreated” value in test [2] (reduction of buds/plant against Untreated) is given as “+17.8%”.
For `N[C@@H](Cc1c[nH]c2ccccc12)C(=O)O` [L-Tryptophan], in test [1], the “Mean Number of Buds/plant” value was 2.4 and the “% Improvement over control ie (C) minus” value is “+11.1%”.
